In patent publication US12655184B2, “Labyrinthin-based peptides for cancer immunotherapies and uses thereof” (LABYRX IMMUNOLOGIC THERAPEUTICS (USA) LIMITED, priority 2018, dated 2026):
Ends that are not written are not given here.

Columns and labels:
Type in all cases: physicochemical
[1] = solubility by visual examination in ultrapure water, PBS and DMSO; details: for Solubility, PBS (pH 7.4): 0.1 M PBS pH 7.4, visual examination
Procedure: The solubility of each labyrinthin-derived peptide candidate was assessed by visual examination in ultrapure water, 0.1 M PBS (PBS; pH 7.4), and dimethyl sulfoxide (DMSO; analytical grade). As reported in Table 4, a solubility of less than 0.1 mg/mL of solvent was defined as “Undissolved” and solubility of greater than or 0.1 mg/mL was defined as “Dissolved.” The concentration range of measured solubility is provided under the “Dissolved” classification where available (Table 4).

[2] = solubility tests in DMSO, normal saline and 0.2 M NaCl by visual examination; details: for Solubility (dissolved Yes/No), 0.2M Sodium (NaCl): 0.2 M NaCl; for Solubility (dissolved Yes/No), 0.154M Sodium (NaCl): normal saline, 0.154 M NaCl
Procedure: Additional testing was completed to attempt to overcome the above-identified solubility issues. Results of the solubility tests performed for each labyrinthin-derived peptide candidate (SEQ ID NOS:29-32) are shown in Table 5. In short, all peptides were again dissolved in DMSO, confirming that the peptides had the capacity to dissolve in solution. Peptide solubility was then tested in normal saline (0.154 M sodium (NaCl)) and 0.2 M sodium (NaCl). Normal saline is generally an option as a solvent/diluent as use for such purpose is accepted by the […]. […] Additional solutions were tested to determine an alternative diluent to solubilize the candidate peptides, as determined by visual examination.

[3] = solubility in phosphate buffer with/without 0.9% NaCl, pH serially lowered with acetic acid, concentration remaining in solution
Procedure: In further solubility testing, two tubes of 1.1 mg peptide for each of the four candidate peptides target was dissolved into 1 mL phosphate buffer (pH 10) (with and without 0.9% NaCl). The peptide solutions were subsequently stored at 4° C. for several hours to dissolve the peptides thoroughly. Following centrifugation, the peptide concentration that remained in solution was measured. The solubility of all four peptide candidates under all tested condition in Table 6 as above 0.3 mg/mL, and for each peptide candidate the variability of solubility across the pH ranges tested was minimal.

[4] = DMSO analytical grade, visual examination, read-out: Solubility, DMSO
[5] = DMSO, read-out: concentration range of measured solubility, DMSO
[6] = pH 7.4, 0.1 M PBS pH 7.4, visual examination, read-out: Solubility, PBS (pH 7.4)
[7] = pH 7.4, 0.1 M PBS pH 7.4, read-out: concentration range of measured solubility, PBS (pH 7.4)
[8] = ultrapure water, visual examination
[9] = ultrapure water, visual examination, read-out: Solubility, Ultrapure water
[10] = pH 4, PBS with 0.9% NaCl, pH 4, read-out: Solubility pH 4
[11] = pH 4, PBS without NaCl, pH 4, read-out: Solubility pH 4
[12] = pH 5, PBS with 0.9% NaCl, pH 5, read-out: Solubility pH 5
[13] = pH 5, PBS without NaCl, pH 5, read-out: Solubility pH 5
[14] = pH 5.5, PBS with 0.9% NaCl, pH 5.5, read-out: Solubility pH 5.5
[15] = pH 5.5, PBS without NaCl, pH 5.5, read-out: Solubility pH 5.5
[16] = pH 6, PBS with 0.9% NaCl, pH 6, read-out: Solubility pH 6
[17] = pH 6, PBS without NaCl, pH 6, read-out: Solubility pH 6
[18] = pH 6.5, PBS with 0.9% NaCl, pH 6.5, read-out: Solubility pH 6.5
[19] = pH 6.5, PBS without NaCl, pH 6.5, read-out: Solubility pH 6.5
[20] = pH 7, PBS with 0.9% NaCl, pH 7, read-out: Solubility pH 7
[21] = pH 7, PBS without NaCl, pH 7, read-out: Solubility pH 7
[22] = pH 7.5, PBS with 0.9% NaCl, pH 7.5, read-out: Solubility pH 7.5
[23] = pH 7.5, PBS without NaCl, pH 7.5, read-out: Solubility pH 7.5
[24] = pH 8, PBS with 0.9% NaCl, pH 8, read-out: Solubility pH 8
[25] = pH 8, PBS without NaCl, pH 8, read-out: Solubility pH 8
[26] = pH 8.5, PBS with 0.9% NaCl, pH 8.5, read-out: Solubility pH 8.5
[27] = pH 8.5, PBS without NaCl, pH 8.5, read-out: Solubility pH 8.5
[28] = pH 9, PBS with 0.9% NaCl, pH 9, read-out: Solubility pH 9
[29] = pH 9, PBS without NaCl, pH 9, read-out: Solubility pH 9
[30] = pH 10, PBS with 0.9% NaCl, pH 10, read-out: Solubility pH 10
[31] = pH 10, PBS without NaCl, pH 10, read-out: Solubility pH 10

Sequence | solubility [1, 4] [µg/mL] | solubility [1, 6] [µg/mL] | solubility [1, 9] [µg/mL] | Solubility (dissolved Yes/No), 0.2M Sodium (NaCl) [2] | Solubility (dissolved Yes/No), DMSO [2] | Solubility (dissolved Yes/No), 0.154M Sodium (NaCl) [2] | solubility [3, 10] [µg/mL] | solubility [3, 11] [µg/mL] | solubility [3, 12] [µg/mL] | solubility [3, 13] [µg/mL] | solubility [3, 14] [µg/mL] | solubility [3, 15] [µg/mL] | solubility [3, 16] [µg/mL] | solubility [3, 17] [µg/mL] | solubility [3, 18] [µg/mL] | solubility [3, 19] [µg/mL] | solubility [3, 20] [µg/mL] | solubility [3, 21] [µg/mL] | solubility [3, 22] [µg/mL] | solubility [3, 23] [µg/mL] | also measured
DMEEMMSEQENPDSSEPVVEDE [SEQ ID NO: 30] | > 100 | > 100 | < 100 | Yes | Yes | Yes | 496 | 647 | 510 | 669 | 510 | 667 | 529 | 674 | 498 | 673 | 539 | 710 | 555 | 712 | solubility [1, 5]: ≤ 10000 µg/mL; solubility [1, 7]: ≤ 10000 µg/mL; Solubility, Ultrapure water [1, 8]: undissolved; solubility [3, 24]: 542 µg/mL; solubility [3, 25]: 720 µg/mL; solubility [3, 26]: 540 µg/mL; solubility [3, 27]: 730 µg/mL; solubility [3, 28]: 548 µg/mL; solubility [3, 29]: 738 µg/mL; solubility [3, 30]: 552 µg/mL; solubility [3, 31]: 726 µg/mL
NEGIEITEVTAPPEDNPVEDSQ [SEQ ID NO: 31] | > 100 | < 100 | < 100 | Yes | Yes | No | 806 | 777 | 813 | 802 | 826 | 819 | 833 | 773 | 831 | 769 | 838 | 825 | 852 | 812 | Solubility, PBS (pH 7.4) [1]: did not improve solubility; solubility [1, 5]: ≤ 5000 µg/mL; Solubility, Ultrapure water [1, 8]: undissolved; Solubility (dissolved Yes/No), 0.154M Sodium (NaCl) ([2]; listed as SEQ ID NO:31): did not dissolve; solubility [3, 24]: 861 µg/mL; solubility [3, 25]: 847 µg/mL; solubility [3, 26]: 848 µg/mL; solubility [3, 27]: 854 µg/mL; solubility [3, 28]: 866 µg/mL; solubility [3, 29]: 857 µg/mL; solubility [3, 30]: 881 µg/mL; solubility [3, 31]: 849 µg/mL
GEDLQQEDGPTGEPQQEDDEFL [SEQ ID NO: 29] | > 100 | > 100 | > 100 | Yes | Yes | Yes | 687 | 731 | 694 | 738 | 695 | 738 | 695 | 742 | 706 | 753 | 701 | 748 | 703 | 757 | solubility [1, 7]: ≤ 10000 µg/mL; solubility ([1]; ultrapure water, read-out: concentration range of measured solubility, Ultrapure water): ≤ 10000 µg/mL; solubility [3, 24]: 707 µg/mL; solubility [3, 25]: 756 µg/mL; solubility [3, 26]: 702 µg/mL; solubility [3, 27]: 762 µg/mL; solubility [3, 28]: 707 µg/mL; solubility [3, 29]: 757 µg/mL; solubility [3, 30]: 708 µg/mL; solubility [3, 31]: 765 µg/mL
DSQVIVEEVSIFPVEEQQEVPPD [SEQ ID NO: 32] | > 100 | < 100 | < 100 | Yes | Yes | No | 382 | 387 | 401 | 397 | 412 | 337 | 411 | 404 | 406 | 407 | 412 | 402 | 412 | 415 | Solubility, PBS (pH 7.4) [1]: did not improve solubility; solubility [1, 5]: ≤ 10000 µg/mL; Solubility, Ultrapure water [1, 8]: undissolved; Solubility (dissolved Yes/No), 0.154M Sodium (NaCl) ([2]; listed as SEQ ID NO:32): did not dissolve; solubility [3, 24]: 415 µg/mL; solubility [3, 25]: 421 µg/mL; solubility [3, 26]: 433 µg/mL; solubility [3, 27]: 424 µg/mL; solubility [3, 28]: 426 µg/mL; solubility [3, 29]: 445 µg/mL; solubility [3, 30]: 413 µg/mL; solubility [3, 31]: 419 µg/mL
